Reference: patent publication US20230113775A1, “ANHYDROUS COMPOSITIONS OF EGFR INHIBITORS AND METHODS OF USE” (priority 2021, published 2023)
“Also recorded” adds a separate entry of the source.

Experiments:
[1] = system: Hairless Skh-1 mice treated with TPA; experiment: Mouse model of hyperkeratosis (TPA-induced skin inflammation); type: in vivo; conditions: composition comprising 0.4%, 1.0% or 4.0% erlotinib daily starting on Day 8
Experimental: Hairless Skh-1 mice were treated with 12-O-Tetradecanoylphorbol-13-acetate (TPA) daily for 7 days than every other day for the next 7 days to induce skin inflammation. The mice were then treated with vehicle or a composition comprising 0.4%, 1.0% or 4.0% erlotinib daily starting on Day 8. The mice were assessed for degrees of inflammation, transepidermal water loss and expression of p^Y1068EGFR, EGFR, KRT10 and KRT16.

EI derived keratinocyte = experiment: Effect of erlotinib on 2D cultured keratinocytes derived from epidermolytic ichthyosis (colony density); type: cell-based, human; conditions: 100 nM erlotinib; microscope and fold change
Experimental: Tissue from non-diseased donors and EI patients were cultured and treated with 100 nM erlotinib.

3D EI HSE = experiment: Effect of erlotinib on EI 3D HSE (morphological analysis); type: cell-based, human; conditions: 100 nM erlotinib every 72 hours until harvest at day 12; EI constructs
Experimental: Non-diseased cells and cells from an EI patient were plated for 3D human skim equivalent (HSE)and treated with 100 nM erlotinib from the time of lifting to the air-liquid interface every 72 hours until harvest at day 12. The samples were subjected to morphological analysis. […] (FIGS. 4A-B).

[2] = system: Non-diseased 3D human skin equivalent (HSE); experiment: Gene expression analysis, non-diseased 3D HSE; type: cell-based
Experimental: (§1) Non-diseased cells and cells from an EI patient were plated for 3D human skin equivalent (HSE)and treated with the erlotinib at 10 nM or 100 nM from the time of lifting to the air-liquid interface every 72 hours until harvest at day 10. The samples were subjected to gene expression analysis. […] Markers of terminal differentiation such as fillaggrin (FLG) and loricrin (LOR) and markers of cell adhesion such as desmoglein 1 (DSG 1) were also modified.
Gene expression results for non-diseased tissue following treatment with erlotinib: […]

[3] = system: Non-diseased 3D human skin equivalent (HSE); experiment: Effect of erlotinib on non-diseased 3D human skin equivalent; type: cell-based; conditions: 100 nM erlotinib every 72 hours until harvest at day 10
Experimental: Human skin equivalents were prepared by methods known in the art. Examples of such methods are disclosed in Mieremet et al. Int. J. Mol. Sci. (2021) 22(11):5790. Non-diseased cells were plated for 3D human skin equivalent (HSE) and treated with 100 nM erlotinib from the time of lifting to the air-liquid interface every 72 hours until harvest at day 10. The samples were subjected to protein, mRNA, immunofluorescence and morphological analysis.

[4] = system: Normal keratinocyte cells; experiment: Effect of erlotinib on 2D non-diseased keratinocytes (proliferation, Loricrin expression); type: cell-based
Experimental: Normal keratinocyte cells were cultured and treated with vehicle or erlotinib at 100, 500 and 1000 nM. The proliferation rate of the cells was determined.

[5] = system: EI patient 3D human skin equivalent (HSE); experiment: Gene expression analysis, EI patient 3D HSE; type: cell-based; conditions: for CDN4 gene expression / CLDN1 gene expression / DSC1 gene expression / DSG1 gene expression / FLG gene expression / IVL gene expression / KRT10 gene expression / KRT16 gene expression / LOR gene expression / OCLN gene expression / TJP1 gene expression: Control 1.00
Experimental: as §1
Gene expression results for EI patient tissue following treatment with erlotinib: […]

EI 3D HSE = experiment: TEER epidermal barrier function, EI 3D HSE; type: cell-based, human; conditions: 10 nM and 100 nM erlotinib
non-diseased 3D HSE = experiment: TEER epidermal barrier function, non-diseased 3D HSE; type: cell-based, human; conditions: 10 nM and 100 nM erlotinib
[6] = Erlo 10 nM, NHEK83.19 non-diseased 3D HSE, Control 1.00
[7] = Erlo 10 nM, NUTC394.14 non-diseased 3D HSE, Control 1.00
[8] = Erlo 10 nM, NUTC439.14 non-diseased 3D HSE, Control 1.0
[9] = Erlo 100 nM, NHEK83.19 non-diseased 3D HSE, Control 1.00
[10] = Erlo 100 nM, NUTC394.14 non-diseased 3D HSE, Control 1.00
[11] = Erlo 100 nM, NUTC439.14 non-diseased 3D HSE, Control 1.0
[12] = Erlo 10 nM, CMH98.11 EI patient 3D HSE
[13] = Erlo 10 nM, CMH101.11 EI patient 3D HSE
[14] = Erlo 10 nM, CMH102.11 EI patient 3D HSE
[15] = Erlo 100 nM, CMH98.11 EI patient 3D HSE
[16] = Erlo 100 nM, CMH101.11 EI patient 3D HSE
[17] = Erlo 100 nM, CMH102.11 EI patient 3D HSE
[18] = harvest day 10, listed as Erlotinib

## C#Cc1cccc(Nc2ncnc3cc(OCCOC)c(OCCOC)cc23)c1 [erlotinib]
[1]; TPA-treated Skh-1 mice
  skin inflammation: dose dependent reduction of skin inflammation
  transepithelial water loss: significantly decreasing transepithelial water loss
[1]; Western blot
  expression of p^Y1068EGFR, EGFR, KRT10 and KRT16: dose dependent change
EI derived keratinocyte
  EI derived keratinocyte colony density: marked reduction in colony density; also recorded: markedly reduced
3D EI HSE
  morphologic change in the upper epidermis: marked morphologic change
[2]; [6]
  CDN4 gene expression: 2.92
  CLDN1 gene expression: 1.30
  DSC1 gene expression: 0.60
  DSG1 gene expression: 0.73
  FLG gene expression: 0.51
  IVL gene expression: 2.15
  KRT10 gene expression: 0.28
  KRT16 gene expression: 1.70
  LOR gene expression: 0.03
  OCLN gene expression: 1.76
  TJP1 gene expression: 1.65
[2]; [7]
  CDN4 gene expression: 2.87
  CLDN1 gene expression: 1.28
  DSC1 gene expression: 0.59
  DSG1 gene expression: 0.72
  FLG gene expression: 0.50
  IVL gene expression: 2.11
  KRT10 gene expression: 0.27
  KRT16 gene expression: 1.67
  LOR gene expression: 0.03
  OCLN gene expression: 1.73
  TJP1 gene expression: 1.62
[2]; [8]
  CDN4 gene expression: 0.7
  CLDN1 gene expression: 1.9
  DSC1 gene expression: 1.9
  DSG1 gene expression: 2.1
  FLG gene expression: 1.0
  IVL gene expression: 0.9
  KRT10 gene expression: 2.1
  KRT16 gene expression: 0.9
  LOR gene expression: 1.4
  OCLN gene expression: 0.7
  TJP1 gene expression: 0.7
[2]; [9]
  CDN4 gene expression: 1.65
  CLDN1 gene expression: 1.24
  DSC1 gene expression: 2.69
  DSG1 gene expression: 2.77
  FLG gene expression: 2.37
  IVL gene expression: 1.21
  KRT10 gene expression: 11.50
  KRT16 gene expression: 1.00
  LOR gene expression: 8.19
  OCLN gene expression: 1.36
  TJP1 gene expression: 1.58
[2]; [10]
  CDN4 gene expression: 1.54
  CLDN1 gene expression: 1.16
  DSC1 gene expression: 2.52
  DSG1 gene expression: 2.59
  FLG gene expression: 2.21
  IVL gene expression: 1.14
  KRT10 gene expression: 10.75
  KRT16 gene expression: 0.89
  LOR gene expression: 7.66
  OCLN gene expression: 1.27
  TJP1 gene expression: 1.48
[2]; [11]
  CDN4 gene expression: 1.4
  CLDN1 gene expression: 29.4
  DSC1 gene expression: 29.4
  DSG1 gene expression: 9.3
  FLG gene expression: 25.9
  IVL gene expression: 1.5
  KRT10 gene expression: 17.2
  KRT16 gene expression: 1.6
  OCLN gene expression: 1.6
  TJP1 gene expression: 1.3
[2]; normal human keratinocytes in 3D culture, erlotinib 10 nM or 100 nM
  keratin 10 (KRT10) expression: marked increase
[3]
  desmosomal organization: desmosomal organization is enhanced
  terminal differentiation: enhances terminal differentiation
[4]; following exposure to erlotinib
  keratinocyte differentiation: keratinocyte differentiation is increased
[4]; high dose erlotinib
  Loricrin expression: increased Loricrin expression
[4]; medium and high doses of erlotinib (tested 100, 500 and 1000 nM) vs vehicle
  keratinocyte proliferation: decreased keratinocyte proliferation
[5]; EI derived human keratinocytes in 3D culture, erlotinib 10 nM or 100 nM
  keratin 10 (KRT10) expression: marked increase
[5]; [12]
  CDN4 gene expression: 0.7
  CLDN1 gene expression: 0.9
  DSC1 gene expression: 0.8
  DSG1 gene expression: 1.8
  FLG gene expression: 1.2
  IVL gene expression: 1.3
  KRT10 gene expression: 0.9
  KRT16 gene expression: 1.3
  LOR gene expression: 1.2
  OCLN gene expression: 0.7
  TJP1 gene expression: 0.7
[5]; [13]
  CDN4 gene expression: 0.96
  CLDN1 gene expression: 0.71
  DSC1 gene expression: 0.65
  DSG1 gene expression: 1.11
  FLG gene expression: 1.08
  IVL gene expression: 1.04
  KRT10 gene expression: 1.00
  KRT16 gene expression: 1.63
  LOR gene expression: 1.10
  OCLN gene expression: 0.81
  TJP1 gene expression: 0.55
[5]; [14]
  CDN4 gene expression: 1.86
  CLDN1 gene expression: 0.79
  DSC1 gene expression: 0.79
  DSG1 gene expression: 4.72
  FLG gene expression: 1.22
  IVL gene expression: 1.58
  KRT10 gene expression: 2.27
  KRT16 gene expression: 1.31
  LOR gene expression: 0.90
  OCLN gene expression: 1.15
  TJP1 gene expression: 1.13
[5]; [15]
  CDN4 gene expression: 1.8
  CLDN1 gene expression: 1.6
  DSC1 gene expression: 1.7
  DSG1 gene expression: 1.9
  FLG gene expression: 1.1
  IVL gene expression: 2.3
  KRT10 gene expression: 1.6
  KRT16 gene expression: 0.8
  LOR gene expression: 0.6
  OCLN gene expression: 1.2
  TJP1 gene expression: 1.2
[5]; [16]
  CDN4 gene expression: 0.72
  CLDN1 gene expression: 0.37
  DSC1 gene expression: 6.09
  DSG1 gene expression: 2.57
  FLG gene expression: 0.72
  IVL gene expression: 0.83
  KRT10 gene expression: 5.78
  KRT16 gene expression: 0.85
  LOR gene expression: 0.95
  OCLN gene expression: 0.57
  TJP1 gene expression: 0.57
[5]; [17]
  CDN4 gene expression: 3.17
  CLDN1 gene expression: 2.20
  DSC1 gene expression: 2.20
  DSG1 gene expression: 6.61
  FLG gene expression: 2.06
  IVL gene expression: 1.76
  KRT10 gene expression: 6.44
  KRT16 gene expression: 1.14
  LOR gene expression: 0.79
  OCLN gene expression: 1.92
  TJP1 gene expression: 1.44
EI 3D HSE; harvest day 10
  epidermal barrier function (TEER): does not impair epidermal barrier function
EI 3D HSE; [18]
  epidermal barrier function (TEER): did not produced a significant change in TEER values
non-diseased 3D HSE; harvest day 10
  epidermal barrier function (TEER): does not impair epidermal barrier function
non-diseased 3D HSE; [18]
  epidermal barrier function (TEER): did not produced a significant change in TEER values
